For eight compounds, IC50 results are on record in patent publication US9085606B2, “Beta amino acid derivatives as integrin antagonists” (Saint Louis University, priority 2012, dated 2015).

Assay [1] has as its target T1, Recombinant human integrin αvβ8 (Homo sapiens, UniProt P06756+P26012).
T1 construct: purchased R&D Systems 4135-AV
As to the kind of experiment: Solid Phase Receptor Assay for αvβ8 Function. The note with it: binding to LAP-coated plate; read-out: αvβ8 SPRA IC50. Here is the method:
Solid Phase Receptor Assay for αvβ8 Function.
Wells were washed 3 times with 150 μL TBS+ and 150 μL of blocking buffer (TBS+ with 1% bovine serum albumin, Sigma A7906) were added. The plate was incubated for 1 hr at 37° C. and then washed 3× with TBS+. […] Compounds were diluted 1:100 into the integrin solution and 50 μL added to empty wells of the washed LAP-coated plate according to a standard template with each sample repeated in triplicate. After incubation for two hours at room temperature, the plate was washed 3× with 150 μL of TBS+. To each well, 50 μL of biotinylated anti-αv antibody (R&D Systems, BAF1219) at 1 μg/mL in TBS+/0.1% BSA were added and the plate was covered and incubated for 1 hr at room temperature. After washing the plate 3× with 150 μL of TBS+ buffer, 50 μL of streptavidin-conjugated horseradish peroxidase (R&D Systems, DY998) diluted in TBS+ blocking buffer were added to the wells and the plate incubated for 20 min at room temperature. The plate was washed 3× with TBS+ followed by 50 μL of TMB substrate (Sigma T4444) added to each well and the plate incubated for 20 min at room temperature. The reaction was optionally stopped with 25 μL of Stop Solution (Sigma S5689). Plates were read by colorimetric detection at 650 nm wavelength using a Tecan Safire II plate reader.

Assay [2] addresses T2, Recombinant human integrin αvβ6 (Homo sapiens, UniProt P06756+P18564).
T2 construct: purchased R&D Systems 3817-AV
Kind of assay: Solid Phase Receptor Assay for αvβ6 Function. The note with it: binding to LAP-coated plate; read-out: αvβ6 SPRA IC50. How it is done: Solid Phase Receptor Assay for αvβ6 Function.
(§1) Wells were washed 3 times with 150 μL TBS+, and 150 μL of blocking buffer (TBS+ with 1% bovine serum albumin, Sigma A7906) were added. The plate was incubated for 1 hr at 37° C., and then washed 3× with TBS+ buffer. […] Compounds were diluted 1:100 into the integrin solution and then 50 μL added to empty wells of the washed LAP-coated plate according to a standard template with each sample repeated in triplicate. After incubation for two hours at room temperature, the plate was washed 3× with 150 μL of TBS+ buffer. To each well, 50 μL of biotinylated anti-αv antibody (R&D Systems, BAF1219) at 0.5 μg/mL in TBS+/0.1% BSA were added and the plate was covered and incubated for 1 hr at room temperature. After washing the plate 3× with 150 μL of TBS+ buffer, 50 μL of streptavidin-conjugated horseradish peroxidase (R&D Systems, DY998) diluted in TBS+ blocking buffer were added to the wells and the plate incubated for 20 min at room temperature. The plate was washed 3× with TBS+ buffer followed by 50 μL of TMB substrate (Sigma T4444) added to each well and the plate incubated for 20 min at room temperature. The reaction was optionally stopped with 25 μL of Stop Solution (Sigma S5689). Plates were read by colorimetric detection at 650 nm wavelength using a Tecan Safire II plate reader.

Assay [3] addresses T3, Recombinant human integrin α5β1 (Homo sapiens, UniProt P05556+P08648).
T3 construct: purchased R&D Systems 3230-A5
As to the kind of experiment: Solid Phase Receptor Assay for α5β1 Function. The note with it: binding to fibronectin-coated plate; read-out: α5β1 SPRA IC50. Here is the method: Solid Phase Receptor Assay for α5β1 Function.
Wells were washed 3 times with 150 μL TBS+ and 150 μl of blocking buffer (TBS+ with 1% bovine serum albumin, Sigma A7906) were added. The plate was incubated for 1 hr at 37° C. and then washed 3× with TBS+ buffer. […] Compounds were diluted 1:100 into the integrin solution and then 50 μL added to empty wells of the washed fibronectin-coated plate according to a standard template with each sample repeated in triplicate. After incubation for two hours at room temperature, the plate was washed 3× with 150 μL of TBS+ buffer. To each well, 50 μL of biotinylated anti-α5 antibody (R&D Systems, BAF1864) at 0.5 ug/mL in TBS+/0.1% BSA were added and the plate covered and incubated for 1 hr at room temperature. After washing the plate 3× with 150 μL of TBS+ buffer, 50 μL of streptavidin-conjugated horseradish peroxidase (R&D Systems, DY998) diluted in TBS+ blocking buffer were added to the wells and the plate incubated for 20 min at room temperature. The plate was washed 3× with TBS+ buffer followed by 50 μL of room temperature TMB substrate (Sigma, T444) added to each well and the plate incubated for 20 min at room temperature. The reaction was optionally stopped with 25 μL of Stop Solution (Sigma S5689). Plates were read by colorimetric detection at 650 nm wavelength using a Tecan Safire II plate reader.

Assay [4] deals with T4, Recombinant human integrin αvβ5 (Homo sapiens, UniProt P06756+P18084).
T4 construct: purchased R&D Systems 2528-AV
T4 sequence (P06756 31-992 limits assumed): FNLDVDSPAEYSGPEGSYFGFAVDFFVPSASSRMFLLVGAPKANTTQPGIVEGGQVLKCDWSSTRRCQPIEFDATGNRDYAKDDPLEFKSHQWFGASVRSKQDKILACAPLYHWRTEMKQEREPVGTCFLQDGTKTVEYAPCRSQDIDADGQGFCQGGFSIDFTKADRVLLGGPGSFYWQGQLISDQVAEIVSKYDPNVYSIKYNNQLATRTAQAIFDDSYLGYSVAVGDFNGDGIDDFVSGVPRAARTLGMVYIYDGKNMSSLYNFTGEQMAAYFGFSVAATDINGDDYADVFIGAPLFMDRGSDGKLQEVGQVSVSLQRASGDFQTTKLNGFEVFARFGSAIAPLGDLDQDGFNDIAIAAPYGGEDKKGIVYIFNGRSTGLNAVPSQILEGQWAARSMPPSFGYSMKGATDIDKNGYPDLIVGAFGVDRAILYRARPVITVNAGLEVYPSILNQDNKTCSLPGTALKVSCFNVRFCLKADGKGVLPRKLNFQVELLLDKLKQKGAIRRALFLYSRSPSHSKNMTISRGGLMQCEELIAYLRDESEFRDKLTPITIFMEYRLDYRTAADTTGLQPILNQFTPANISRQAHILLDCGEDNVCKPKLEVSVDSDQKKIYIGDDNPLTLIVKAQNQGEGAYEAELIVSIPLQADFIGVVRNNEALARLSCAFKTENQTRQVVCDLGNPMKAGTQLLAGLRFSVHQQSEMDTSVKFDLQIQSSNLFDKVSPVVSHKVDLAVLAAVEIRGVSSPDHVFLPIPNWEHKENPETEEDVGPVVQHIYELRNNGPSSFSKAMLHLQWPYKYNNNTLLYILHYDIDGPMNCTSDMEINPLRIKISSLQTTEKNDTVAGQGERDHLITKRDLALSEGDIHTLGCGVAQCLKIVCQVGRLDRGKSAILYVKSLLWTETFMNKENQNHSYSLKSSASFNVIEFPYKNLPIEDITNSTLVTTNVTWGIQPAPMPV
T4 sequence (P18084 24-719 limits assumed): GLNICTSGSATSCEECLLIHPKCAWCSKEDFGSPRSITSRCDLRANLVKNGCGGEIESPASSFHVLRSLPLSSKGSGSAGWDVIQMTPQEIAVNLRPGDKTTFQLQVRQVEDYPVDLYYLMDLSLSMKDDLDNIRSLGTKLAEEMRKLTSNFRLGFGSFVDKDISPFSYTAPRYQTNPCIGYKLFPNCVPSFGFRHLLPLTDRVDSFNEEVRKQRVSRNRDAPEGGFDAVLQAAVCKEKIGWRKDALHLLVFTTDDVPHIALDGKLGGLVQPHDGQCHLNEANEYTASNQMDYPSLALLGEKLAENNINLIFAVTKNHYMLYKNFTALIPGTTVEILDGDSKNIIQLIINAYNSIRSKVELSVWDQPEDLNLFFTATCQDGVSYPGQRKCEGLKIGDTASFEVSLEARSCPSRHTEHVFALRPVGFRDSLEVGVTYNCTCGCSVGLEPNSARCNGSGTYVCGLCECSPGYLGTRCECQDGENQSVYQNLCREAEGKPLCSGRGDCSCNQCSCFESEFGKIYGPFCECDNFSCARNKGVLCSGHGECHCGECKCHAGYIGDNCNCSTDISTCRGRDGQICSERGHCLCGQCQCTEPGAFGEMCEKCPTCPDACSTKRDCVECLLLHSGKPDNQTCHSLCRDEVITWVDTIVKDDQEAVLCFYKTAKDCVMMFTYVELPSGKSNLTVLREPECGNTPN
As to the kind of experiment: Solid Phase Receptor Assay for αvβ5 Function. The note with it: binding to vitronectin-coated plate; read-out: αvβ5 SPRA IC50. How it is done: Solid Phase Receptor Assay for αvβ5 Function.
as §1, with “150 μL TBS+ and 150” for “150 μL TBS+, and 150”, “at 37° C. and then” for “at 37° C., and then”, “the washed vitronectin-coated plate according” for “the washed LAP-coated plate according”, “TBS+/0.1% BSA at 0.5 μg/mL were added” for “TBS+/0.1% BSA were added”, “the plate covered and” for “the plate was covered and”, “peroxidase (R&D Systems DY998) diluted” for “peroxidase (R&D Systems, DY998) diluted”

T2 sequence (P06756 31-992 limits assumed): as the sequence (P06756 31-992 limits assumed) above
T2 sequence (P18564 22-707 limits assumed): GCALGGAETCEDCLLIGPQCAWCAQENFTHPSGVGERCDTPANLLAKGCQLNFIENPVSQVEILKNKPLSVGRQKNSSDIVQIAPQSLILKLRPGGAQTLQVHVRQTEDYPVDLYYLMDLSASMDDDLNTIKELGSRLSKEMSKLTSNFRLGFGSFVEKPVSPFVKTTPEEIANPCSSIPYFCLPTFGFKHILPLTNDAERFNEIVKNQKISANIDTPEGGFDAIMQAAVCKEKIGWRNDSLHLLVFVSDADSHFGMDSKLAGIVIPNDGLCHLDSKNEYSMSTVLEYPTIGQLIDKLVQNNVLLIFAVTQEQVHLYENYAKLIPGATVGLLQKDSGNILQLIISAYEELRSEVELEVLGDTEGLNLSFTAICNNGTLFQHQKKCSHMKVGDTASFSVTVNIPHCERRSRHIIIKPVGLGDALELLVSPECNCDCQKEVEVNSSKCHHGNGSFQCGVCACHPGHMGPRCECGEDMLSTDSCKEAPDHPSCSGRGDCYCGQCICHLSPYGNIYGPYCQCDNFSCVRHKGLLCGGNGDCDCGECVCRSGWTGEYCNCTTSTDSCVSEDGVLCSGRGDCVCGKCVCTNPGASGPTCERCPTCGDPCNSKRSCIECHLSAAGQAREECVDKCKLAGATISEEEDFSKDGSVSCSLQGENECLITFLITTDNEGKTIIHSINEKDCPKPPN
T1 sequence (P06756 31-992 limits assumed): as the sequence (P06756 31-992 limits assumed) above
T1 sequence (P26012 43-684 limits assumed): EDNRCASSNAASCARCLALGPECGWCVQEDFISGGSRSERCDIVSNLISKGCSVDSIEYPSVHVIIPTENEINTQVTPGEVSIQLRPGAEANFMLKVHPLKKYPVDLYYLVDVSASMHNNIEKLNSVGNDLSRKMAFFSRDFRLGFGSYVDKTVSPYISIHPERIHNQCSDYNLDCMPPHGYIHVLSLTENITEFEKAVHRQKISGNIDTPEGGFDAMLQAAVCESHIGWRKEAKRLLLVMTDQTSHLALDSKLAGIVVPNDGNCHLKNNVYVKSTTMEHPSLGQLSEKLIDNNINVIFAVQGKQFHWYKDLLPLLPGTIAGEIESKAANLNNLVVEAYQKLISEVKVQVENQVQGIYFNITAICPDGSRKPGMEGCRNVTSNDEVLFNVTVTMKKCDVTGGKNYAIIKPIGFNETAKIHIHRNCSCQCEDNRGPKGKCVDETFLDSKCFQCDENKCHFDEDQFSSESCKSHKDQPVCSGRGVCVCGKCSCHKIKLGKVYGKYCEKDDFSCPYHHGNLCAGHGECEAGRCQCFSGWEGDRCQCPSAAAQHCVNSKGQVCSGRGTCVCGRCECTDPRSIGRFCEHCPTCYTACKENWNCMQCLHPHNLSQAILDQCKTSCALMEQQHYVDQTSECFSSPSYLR
T3 sequence (P08648 42-995 limits assumed): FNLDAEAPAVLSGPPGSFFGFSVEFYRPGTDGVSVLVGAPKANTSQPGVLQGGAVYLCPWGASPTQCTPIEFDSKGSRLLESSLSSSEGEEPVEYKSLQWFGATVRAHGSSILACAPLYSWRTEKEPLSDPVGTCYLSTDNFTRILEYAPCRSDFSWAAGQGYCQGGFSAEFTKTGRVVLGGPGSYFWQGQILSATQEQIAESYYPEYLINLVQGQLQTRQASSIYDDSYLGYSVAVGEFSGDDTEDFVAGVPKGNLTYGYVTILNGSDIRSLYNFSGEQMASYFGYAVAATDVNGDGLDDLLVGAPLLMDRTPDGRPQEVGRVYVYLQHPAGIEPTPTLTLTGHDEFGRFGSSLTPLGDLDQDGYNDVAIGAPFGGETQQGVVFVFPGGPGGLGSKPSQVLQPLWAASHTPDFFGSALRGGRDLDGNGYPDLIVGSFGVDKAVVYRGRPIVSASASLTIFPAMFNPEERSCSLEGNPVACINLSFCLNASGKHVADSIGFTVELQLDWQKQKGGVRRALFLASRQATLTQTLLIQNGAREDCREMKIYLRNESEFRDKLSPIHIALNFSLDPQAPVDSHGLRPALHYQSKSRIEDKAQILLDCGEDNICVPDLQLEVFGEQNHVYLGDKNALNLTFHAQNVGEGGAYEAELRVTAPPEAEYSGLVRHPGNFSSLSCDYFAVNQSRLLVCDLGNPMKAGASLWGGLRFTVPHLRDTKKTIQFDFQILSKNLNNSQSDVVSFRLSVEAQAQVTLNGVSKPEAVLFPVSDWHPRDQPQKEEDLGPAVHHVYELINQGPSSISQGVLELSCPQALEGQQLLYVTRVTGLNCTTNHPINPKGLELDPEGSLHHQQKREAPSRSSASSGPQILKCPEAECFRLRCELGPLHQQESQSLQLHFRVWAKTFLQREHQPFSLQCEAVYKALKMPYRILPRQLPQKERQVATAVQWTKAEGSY
T3 sequence (P05556 21-728 limits assumed): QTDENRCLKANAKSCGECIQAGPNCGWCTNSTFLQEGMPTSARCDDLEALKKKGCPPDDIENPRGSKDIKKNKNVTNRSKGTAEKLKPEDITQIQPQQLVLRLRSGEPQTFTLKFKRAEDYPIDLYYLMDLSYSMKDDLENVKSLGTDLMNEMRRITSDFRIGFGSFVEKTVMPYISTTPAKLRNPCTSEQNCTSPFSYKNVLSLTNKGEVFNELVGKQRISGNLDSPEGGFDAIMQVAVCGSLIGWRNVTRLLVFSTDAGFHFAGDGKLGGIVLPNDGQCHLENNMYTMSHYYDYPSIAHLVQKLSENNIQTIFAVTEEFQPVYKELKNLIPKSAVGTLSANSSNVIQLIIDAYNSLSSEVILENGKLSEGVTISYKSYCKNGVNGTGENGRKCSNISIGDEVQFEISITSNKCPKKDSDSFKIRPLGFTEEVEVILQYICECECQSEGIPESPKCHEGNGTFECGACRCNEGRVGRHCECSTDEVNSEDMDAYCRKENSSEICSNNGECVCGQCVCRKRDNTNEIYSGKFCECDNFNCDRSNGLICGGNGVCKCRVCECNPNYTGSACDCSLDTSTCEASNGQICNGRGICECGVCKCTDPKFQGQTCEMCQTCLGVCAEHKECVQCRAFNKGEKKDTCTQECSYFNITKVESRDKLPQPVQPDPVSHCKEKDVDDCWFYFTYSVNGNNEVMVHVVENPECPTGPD

With `CC(C)(C)c1cc(C#N)cc([C@H](CC(=O)O)NC(=O)CNC(=O)c2cc(O)cc(NC3=NCC(O)CN3)c2)c1` (stereo partly drawn) [Example 12, (3S)-3-(3-(tert-butyl)-5-cyanophenyl)-3-(2-(3-hydroxy-5-((5-hydroxy-1,4,5,6-tetrahydro-pyrimidin-2-yl)amino)benzamido)acetamido)propanoic acid], the IC50 (in general, the concentration that inhibits the measured activity by half) in assay [1] came to 0.2 nM; in assay [2] it was 0.4 nM; in assay [3] it was 0.3 nM; in assay [4] it was 0.2 nM.

Consider `O=C(O)C[C@H](NC(=O)CNC(=O)c1cc(O)cc(NC2=NCC(O)CN2)c1)c1cc(Cl)cc(C2(CO)CCOCC2)c1` (stereo partly drawn) [Example 17, (3S)-3-(3-chloro-5-(4-(hydroxymethyl)tetrahydro-2H-pyran-4-yl)phenyl)-3-(2-(3-hydroxy-5-((5-hydroxy-1,4,5,6-tetrahydropyrimidin-2-yl)amino)benzamido)acetamido)propanoic acid], for which the concentration for half-maximal inhibition (IC50) in assay [1] was determined as 0.4 nM; in assay [2], 0.5 nM; in assay [3], 0.4 nM; in assay [4] it was 0.5 nM.

As to `CC(C)(O)c1cc(Br)cc([C@H](CC(=O)O)NC(=O)CNC(=O)c2cc(O)cc(NC3=NCC(O)CN3)c2)c1` (stereo partly drawn) [Example 3, (3S)-3-(3-bromo-5-(2-hydroxypropan-2-yl)phenyl)-3-(2-(3-hydroxy-5-((5-hydroxy-1,4,5,6-tetrahydropyrimidin-2-yl)amino)benzamido)acetamido)propanoic acid], the IC50 was found to be 0.4 nM in assay [1], 0.7 nM in assay [2], 0.3 nM in assay [3] and 0.7 nM in assay [4].

`CC(C)(C)c1cc(Br)cc([C@H](CC(=O)O)NC(=O)CNC(=O)c2cncc(NC(=N)N)c2)c1` [Example 6, (S)-3-(3-bromo-5-(tert-butyl)phenyl)-3-(2-(5-guanidinonicotinamido)acetamido) propanoic acid]: the IC50 in assay [1] turned out to be 0.3 nM; in assay [2], 0.5 nM; in assay [3], 1 nM; in assay [4], 2.2 nM.

As to `COCC1(c2cc(Cl)cc([C@H](CC(=O)O)NC(=O)CNC(=O)c3cc(O)cc(NC4=NCC(O)CN4)c3)c2)CCOCC1` (stereo partly drawn) [Example 16, (3S)-3-(3-chloro-5-(4-(Methoxymethyl)tetrahydro-2H-pyran-4-yl)phenyl)-3-(2-(3-hydroxy-5-((5-hydroxy-1,4,5,6-tetrahydropyrimidin-2-yl)amino)benzamido)acetamido)propanoic acid], the IC50 in assay [1] was found to be 0.4 nM; in assay [2], 0.5 nM; in assay [3], 0.5 nM; in assay [4] it was 0.6 nM.

As for `CC(C)(O)c1cc([C@H](CC(=O)O)NC(=O)CNC(=O)c2cc(O)cc(NC3=NCC(O)CN3)c2)cc(C(F)(F)F)c1` (stereo partly drawn) [Example 13, (3S)-3-(2-(3-hydroxy-5-((5-hydroxy-1,4,5,6-tetrahydropyrimidin-2-yl)amino)benzamido)acetamido)-3-(3-(2-hydroxypropan-2-yl)-5-(trifluoromethyl)phenyl)propanoic acid], the IC50 is 0.6 nM in assay [1], 0.6 nM in assay [2], 0.9 nM in assay [3] and 0.3 nM in assay [4].

In the case of `O=C(O)C[C@H](NC(=O)CNC(=O)c1cc(O)cc(NC2=NCC(O)CN2)c1)c1cc(Cl)cc(C2(CF)CCOCC2)c1` (stereo partly drawn) [Example 20, (3S)-3-(3-chloro-5-(4-(fluoromethyl)tetrahydro-2H-pyran-4-yl)phenyl)-3-(2-(3-hydroxy-5-((5-hydroxy-1,4,5,6-tetrahydropyrimidin-2-yl)amino)benzamido)acetamido)propanoic acid], the IC50 in assay [1] was 0.5 nM; in assay [2], 1.4 nM; in assay [3], 2.4 nM; in assay [4], 0.5 nM.

On to `CC(C)(C)c1cc(Br)c(O)c([C@H](CC(=O)O)NC(=O)CNC(=O)c2cc(O)cc(NC3=NCC(O)CN3)c2)c1` (stereo partly drawn) [Example 1, (3S)-3-(3-bromo-5-(tert-butyl)-2-hydroxyphenyl)-3-(2-(3-hydroxy-5-((5-hydroxy-1,4,5,6-tetrahydropyrimidin-2-yl)amino)benzamido)acetamido)propanoic acid], for which the IC50 in assay [1] came to 0.1 nM; in assay [2], 0.4 nM; in assay [3], 0.5 nM; in assay [4], 47 nM.
